This note sets out measurements from patent US11672815B2, “Composition for inhibiting immune cell proliferation comprising sialyllactose or derivative thereof and method thereof” (CUPIONE CO., LTD., priority 2017, dated 2023).

The test system of one assay is Sox-9. Nature of the assay: Sox-9 reporter gene luciferase activity in chondrocytes. In kind it is cell-based, mouse. The note with it: co-treated with 5 ng/ml IL-1β and 0 to 250 μM for 24 hrs. As for the experimental part: A Sox-9 reporter gene was prepared by inserting 48-bp Sox9 binding site in the first intron of human Col2a1 gene into the upstream of SV40 promoter in pGL3 vector (Zhou G et al., J Biol Chem 1998, 12, 14989-97).
1 μg of the Sox-9 reporter gene was transfected into chondrocytes using lipofectamine 2000 (Invitrogen) for 3 hrs. The transfected cells were co-treated with 5 ng/ml interleukin 1 beta (IL-1β) and 0 μM, 10 μM, 50 μM, 100 μM, or 250 μM of 3′- or 6′-sialyllactose for 24 hrs, and then chondrocytes were recovered to examine Sox-9 activity by luciferase activity.

The next assay deals with Mmp3. Nature of the assay: Mmp3 expression in IL-1β-treated chondrocytes (qRT-PCR, Western blotting). The note with it: 5 ng/ml of IL-1β, 0 to 250 μM, 24 hrs; concentration-dependent. In kind it is cell-based, mouse. As for the experimental part:
IL-1β is a representative inflammatory cytokine that decreases Col2a1 essential for cartilage formation in chondrocytes and also promotes articular inflammation and cartilage tissue destruction. Chondrocytes were treated with 5 ng/ml of IL-1β by time, and then qRT-PCR was performed using conditions and primers of the following Table 1 according to the method of Example 2-1 to examine inhibition of Mmp3 and Mmp13 expression.
Secretory proteins such as Mmp3 and Mmp13 were allowed to react at 0° C. for 20 min after reacting 900 μl of serum-free medium (conditioned medium) with 100 μl of trichloroacetic acid (TCA). Next, a supernatant was discarded by centrifugation at 12,000 rpm and 4° C. for 10 min, and then reacted with 500 μl of 100% cold acetone at […] for 1 hr. The sample reacting with 100% acetone was centrifuged to discard a supernatant, and proteins were finally precipitated and detected. Western blotting was performed using anti-Mmp3 antibody (Abcam) and anti-Mmp13 antibody (Abcam), and thickness and concentration of Western blot bands were measured by a computer program and relative values thereof were determined by densitometry.

The test system of assay [1] is extracellular-signal regulated kinase (Erk). In words: Erk phosphorylation in IL-1β-treated chondrocytes (Western blotting, densitometry). Type of assay: cell-based, mouse. To be noted: 5 ng/ml of IL-1β, 0 μM, 50 μM, 100 μM, or 250 μM. As for the experimental part: Chondrocytes of mouse knee joint were treated with 5 ng/ml of IL-1β for 10 min to examine activation of extracellular-signal regulated kinase (Erk) through Erk phosphorylation.
Chondrocytes were co-treated with 5 ng/ml of IL-1β and 0 μM, 50 μM, 100 μM, or 250 μM of 3′-sialyllactose, and Erk phosphorylation increased by IL-1β was confirmed to be decreased by 3′-sialyllactose (FIG. 8).

The subject of assay [2] is DMM-induced osteoarthritis mouse model. In words: DMM-induced osteoarthritis mouse model, oral administration. Type of assay: in vivo. As for the experimental part: All animal experiments were approved by the Animal Care and Use Committee of the University of Ajou. For osteoarthritis models, 8-week-old male C57BL/6 mice were subjected to destabilization of the medial meniscus (DMM) surgery. Mice knee joints were processed for histological analysis 10 weeks after surgery. In detail, the experimental mice also received gavage feeding of PBS containing 3′-sialyllactose (100 mg/Kg) starting at 2 weeks prior to DMM, and oral feeding on every other day during 4 weeks after surgery, and performed three times a week for total 6 weeks until the end of the experiment. Then, the mice were sacrificed. Control mice were administered with PBS in the same manner.
Knee joints of the mice sacrificed in Example 6-1 were fixed in 4% paraformaldehyde, treated with 0.5 M EDTA (pH 8.0) for 2 weeks, and embedded in paraffin. The paraffin blocks were sectioned at a thickness of 5 μm and serial-sectioned at 40-μm intervals. The paraffin sections were deparaffinized in xylene and hydrated with graded ethanol. Cartilage destruction was detected by Safranin-O staining and scored using the Osteoarthritis Research Society International (OARSI) grading system. Mmp3 (ab52915), Mmp13 (ab51072), Cox2 (SC-1745), pErk ((#9101), IjB (9242), Sox9 (NBP2-24659; Novus, Littleton, USA) and Col2a1 (MAB8887) were immunostained as previously described.

In a further assay the test system is human RA-FLS. Nature of the assay: Chemokine, pro-inflammatory cytokine and COX2 expression in stimulated human RA-FLS. In kind it is cell-based. The note with it: IL-1β-, IL-6-, IL-17-, and TNF-α-stimulated human RA-FLS; 100 μM or 250 μM, 24 hrs. As for the experimental part: Anti-chemokine and anti-inflammatory effects of 3′-sialyllactose were examined. First, purity of mouse FLS was examined by FACS analysis, and then no effects of 3′-sialyllactose on FLS proliferation and cytotoxicity were examined by WST-1 assay (see FIGS. 14A-A to 14A-C). […] Therefore, in a subsequent in vitro experiment, 3′-sialyllactose was used at a concentration of 0 μM to 250 μM. In order to examine effects of 3′-sialyllactose on IL-1β-, IL-6-, IL-17-, and TNF-α-induced chemokines (e.g., CCL2, CCL5, CCL7, CXCL1, CXCL2, and CXCL5), pro-inflammatory cytokines (IL-1, IL-6, and TNF-α), and COX2 expression, IL-1β-, IL-6-, IL-17-, and TNF-α-stimulated human RA-FLS and mouse FLS were treated with 3′-sialyllactose (100 μM or 250 μM) for 24 hrs.

With `CC(=O)N[C@H]1C([C@H](O)[C@H](O)CO)O[C@@](O[C@@H]2C(O)[C@H](O[C@@H]3C(CO)OC(O)C(O)[C@H]3O)OC(CO)[C@@H]2O)(C(=O)[O-])C[C@H]1O.[Na+]` (some centres unmarked) [3′-sialyllactose], the “Sox-9 activity decreased by IL-1β” value in the assay with Sox-9 was “restored”. Also, in the assay with Mmp3, the “Mmp3 expression increased by IL-1β in chondrocytes” value is reported as “decreased”. In addition, the “Erk phosphorylation increased by IL-1β” value in assay [1] is given as “decreased”. Besides, in assay [2] (100 mg/Kg gavage, 10 weeks after DMM surgery), the “OARSI scores (cartilage destruction) compared with control mouse” value is on record as “remarkably low”. Also, in assay [2] (100 mg/Kg oral, DMM model), the “Cox2 expression (immunohistochemical staining)” value is recorded as “decreased”, the “Mmp3 expression (immunohistochemical staining)” value is listed as “decreased” and the “Mmp13 expression (immunohistochemical staining)” value is given as “decreased”. Besides, the “expression levels of chemokines, pro-inflammatory cytokines, and COX2” value in the assay on human RA-FLS is “remarkably decreased”.
